Reference: PubChem BioAssay (NCI)
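All cell lines were grown in 96-well plates and treated with compound for 48 hours. GI50 marks 50% less growth. TGI: total growth inhibition.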

Legend:
Assay in all cases: DTP human tumour cell line panel, 48 h
NCI-H23 lung = tested on: NCI-H23 lung
HCT-15 colon = tested on: HCT-15 colon
SF-539 CNS = tested on: SF-539 CNS
RXF 393 renal = tested on: RXF 393 renal
MDA-MB-231 breast = tested on: MDA-MB-231 breast
PC-3 prostate = tested on: PC-3 prostate
UACC-257 melanoma = tested on: UACC-257 melanoma
RPMI-8226 leukemia = tested on: RPMI-8226 leukemia
HCT-116 colon = tested on: HCT-116 colon
T-47D breast = tested on: T-47D breast
A549 NSCLC = tested on: A549 NSCLC
U251 CNS = tested on: U251 CNS
OVCAR-8 ovarian = tested on: OVCAR-8 ovarian
CCRF-CEM leukemia = tested on: CCRF-CEM leukemia
EKVX NSCLC = tested on: EKVX NSCLC
KM12 colon = tested on: KM12 colon
BT-549 breast = tested on: BT-549 breast
M14 melanoma = tested on: M14 melanoma
MDA-MB-435 = tested on: MDA-MB-435
SK-MEL-28 melanoma = tested on: SK-MEL-28 melanoma
LOX IMVI melanoma = tested on: LOX IMVI melanoma
IGROV1 ovarian = tested on: IGROV1 ovarian
SK-OV-3 ovarian = tested on: SK-OV-3 ovarian
SF-295 CNS = tested on: SF-295 CNS
HS 578T breast = tested on: HS 578T breast
SK-MEL-5 melanoma = tested on: SK-MEL-5 melanoma
SF-268 CNS = tested on: SF-268 CNS
SW-620 colon = tested on: SW-620 colon
NCI-H460 lung = tested on: NCI-H460 lung

## N#Cc1c(-c2ccc(Cl)cc2)cc(-c2cc(O)ccc2O)nc1N
NCI-H23 lung
  GI50: 1220 nM
  TGI: 5280 nM
HCT-15 colon
  GI50: 4740 nM
  TGI: > 52800 nM
SF-539 CNS
  GI50: 981 nM
  TGI: 3290 nM
RXF 393 renal
  GI50: 835 nM
  TGI: 2720 nM
MDA-MB-231 breast
  GI50: 1250 nM
  TGI: 5090 nM
PC-3 prostate
  GI50: 1480 nM
  TGI: > 33900 nM
UACC-257 melanoma
  GI50: 1830 nM
  TGI: 7440 nM
RPMI-8226 leukemia
  GI50: 3200 nM
  TGI: > 100000 nM
HCT-116 colon
  GI50: 553 nM
  TGI: > 34000 nM
T-47D breast
  GI50: 854 nM
  TGI: 5640 nM
A549 NSCLC
  GI50: 2330 nM
  TGI: 13800 nM
U251 CNS
  GI50: 669 nM
  TGI: 2410 nM
OVCAR-8 ovarian
  GI50: 1370 nM
  TGI: 4930 nM
CCRF-CEM leukemia
  GI50: 1230 nM
  TGI: > 100000 nM
EKVX NSCLC
  GI50: 2770 nM
  TGI: > 62900 nM
KM12 colon
  GI50: 2000 nM
  TGI: 14900 nM
BT-549 breast
  GI50: 3410 nM
  TGI: 31200 nM
M14 melanoma
  GI50: 1230 nM
  TGI: 5630 nM
MDA-MB-435
  GI50: 686 nM
  TGI: 2740 nM
SK-MEL-28 melanoma
  GI50: 1760 nM
  TGI: 4230 nM
LOX IMVI melanoma
  GI50: 558 nM
  TGI: 1890 nM
IGROV1 ovarian
  GI50: 1240 nM
  TGI: 4770 nM
SK-OV-3 ovarian
  GI50: 2420 nM
  TGI: 6340 nM
SF-295 CNS
  GI50: 2940 nM
  TGI: 9770 nM
HS 578T breast
  GI50: 1730 nM
  TGI: > 100000 nM
SK-MEL-5 melanoma
  GI50: 853 nM
  TGI: 2400 nM
SF-268 CNS
  GI50: 825 nM
  TGI: 7150 nM
SW-620 colon
  GI50: 773 nM
  TGI: 4680 nM
NCI-H460 lung
  GI50: 935 nM
  TGI: 4870 nM
